Structures can show the parent of a compound that is named as a salt.
What was measured:
rat subcutaneous tissue = assay: Tissue biocompatibility study of DMF ISFI system (physical inspection for inflammation); format: in vivo, rats; details: SC injection; visual observation
Procedure: Tissue biocompatibility study of DMF ISFI system was performed. Mice were separated into three groups i.e., positive control group, test group, negative control group and each group consist of three animals to assess the DMF and ISFI biocompatibility. All of the three groups received different drugs like first group received phosphate buffer of pH 7.4 dispersed DMF, test group was given both drug DMF with the ISFI and the last group were given only ISFI. For all physical signs of inflammation, all the animals were visually observed. Produces responses in experimental animals were graded as 0 for normal, + for mild symptoms, ++ for moderate and +++ used for the severe symptoms. After injecting the drugs in animals, one mouse per group was sacrificed at the interval of 3rd day, 7th day and 14th days. The adjacent tissues were excised and fixed in 10% formalin tamped with phosphate buffer. The tissue was under the observation of optical microscope after the hematoxylin and eosin staining process for the changes in acute inflammatory responses, fibrosis and foreign body reaction. (Anderson and Langone, 1999 and Park and Park, 1999).

[1] = In vivo drug release study (plasma DMF by HPLC after SC injection); design: species or system Albino Wistar rats; details: rats, S.C.
Procedure: In vivo drug release study was also performed. Albino Wistar rats (275-300 g) were used in the study. Sterile polypropylene cages with paddy husk were used for the housing of experimental animals. Standard food pellets were given to the animals with water ad libitum. Uses of experimental animal were approved by the IAEC (JSSCP, S. S. Nagar, Mysore, India Code No: 132/2013) and for all the purpose of animal welfare the CPCSEA guidelines were followed.
The experimental animals were separated into groups of three and each group consisted of three animals. […] For injecting 0.5 mL of injectable gel, a syringe of 1 mL with the needle of 26-gauge was used.
For the In-vivo detection of Dimethyl Fumarate, an aliquot of blood was drawn from retro orbital sinus of each rat at specified blood collection times. 1.5 mL aliquot of blood from retro orbital sinus was collected in an EDTA coated Eppendorf tube. The tubes were centrifuged at 4° C. and 8000 rpm for 10 min to collect plasma. Plasma was separated into a separate eppendorf tube. Until the screening or assay of plasma samples by using HPLC, the sample was stored at −20° C.
All animals remained in good health throughout the acclimatization and study periods. The cumulative (±SD) plasma concentrations of DMF at the times of sample collection after SC are plotted in FIG. 8. Drug concentration was determined by using HPLC method. […]

inflammatory reaction at physical inspection (rat subcutaneous tissue): highest inflammation
plasma concentration (final level) ([1]; pure drug 1 mg/0.2 mL, group III): non-detectable quantities
time after which plasma concentration falls ([1]; pure drug 2 mg/0.2 mL, Group I): 150 h
Structure (SMILES): COC(=O)/C=C/C(=O)OC [DMF, Dimethyl fumarate]
